Measurements from the NIST ThermoML archive (doi:10.1021/je060002k).
Numbers after ± are expanded uncertainties.

Details: Liquid

CC(C)CC(C)(C)C [2,2,4-trimethylpentane]
vapor or sublimation pressure (372.35 K): 101.33 ± 3 kPa

CCCCCC [hexane]
vapor or sublimation pressure (341.85 K): 101.33 ± 3 kPa

CCO [ethanol]
vapor or sublimation pressure (351.45 K): 101.33 ± 3 kPa

Cc1ccccc1 [toluene]
vapor or sublimation pressure (383.75 K): 101.33 ± 3 kPa
